From patent US11053204B2, “Pyrimidinyloxy benzene derivatives as herbicides” (FMC Corporation, priority 2015, dated 2021)

What was measured:
Type in all cases: in vivo
[1] = test system: Italian ryegrass (Lolium multiflorum); assay: Test A preemergence, visual injury rating
Method in brief: (§1)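 Compounds in non-phytotoxic solvent with surfactant applied as soil spray preemergence, or postemergence to plants 2-10 cm at one- to two-leaf stage, in loam/sand. After approximately 10 days in greenhouse, injury rated visually versus untreated controls, 0 (no effect) to 100 (complete control).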

[2] = test system: barnyardgrass (Echinochloa crus-galli); assay: Test A preemergence, visual injury rating
Method in brief: as §1

[3] = test system: giant foxtail (Setaria faberii); assay: Test A preemergence, visual injury rating
Method in brief: as §1

kochia (Kochia scoparia) [4] = assay: Test A preemergence, visual injury rating
Method in brief: as §1

[5] = test system: pigweed (Amaranthus retroflexus); assay: Test A preemergence, visual injury rating
Method in brief: as §1

[6] = test system: ragweed (common ragweed, Ambrosia elatior); assay: Test A preemergence, visual injury rating
Method in brief: as §1

[7] = test system: Italian ryegrass (Lolium multiflorum); assay: Test A postemergence, visual injury rating; conditions: 0 is no effect, 100 is complete control; for Ryegrass, Italian plant response rating: 0 to 100 scale, approximately 10 days
Method in brief: as §1

[8] = test system: barnyardgrass (Echinochloa crus-galli); assay: Test A postemergence, visual injury rating; conditions: 0 is no effect, 100 is complete control; for Barnyardgrass plant response rating: 0 to 100 scale, approximately 10 days
Method in brief: as §1

[9] = test system: blackgrass (Alopecurus myosuroides); assay: Test A postemergence, visual injury rating; conditions: 0 is no effect, 100 is complete control; for Blackgrass plant response rating: 0 to 100 scale, approximately 10 days
Method in brief: as §1

corn (Zea mays) = assay: Test A postemergence, visual injury rating; conditions: 0 is no effect, 100 is complete control; for Corn plant response rating: 0 to 100 scale, approximately 10 days
Method in brief: as §1

[10] = test system: galium (catchweed bedstraw, Galium aparine); assay: Test A postemergence, visual injury rating; conditions: 0 is no effect, 100 is complete control; for Galium plant response rating: 0 to 100 scale, approximately 10 days
Method in brief: as §1

[11] = test system: giant foxtail (Setaria faberii); assay: Test A postemergence, visual injury rating; conditions: 0 is no effect, 100 is complete control; for Foxtail, Giant plant response rating: 0 to 100 scale, approximately 10 days
Method in brief: as §1

kochia (Kochia scoparia) [12] = assay: Test A postemergence, visual injury rating; conditions: 0 is no effect, 100 is complete control; for Kochia plant response rating: 0 to 100 scale, approximately 10 days
Method in brief: as §1

[13] = test system: pigweed (Amaranthus retroflexus); assay: Test A postemergence, visual injury rating; conditions: 0 is no effect, 100 is complete control; for Pigweed plant response rating: 0 to 100 scale, approximately 10 days
Method in brief: as §1

[14] = test system: ragweed (common ragweed, Ambrosia elatior); assay: Test A postemergence, visual injury rating; conditions: 0 is no effect, 100 is complete control; for Ragweed plant response rating: 0 to 100 scale, approximately 10 days
Method in brief: as §1

[15] = test system: wheat (Triticum aestivum); assay: Test A postemergence, visual injury rating; conditions: 0 is no effect, 100 is complete control; for Wheat plant response rating: 0 to 100 scale, approximately 10 days
Method in brief: as §1

[16] = test system: barnyardgrass (Echinochloa crus-galli); assay: Test B flooded paddy test, plant response rating; conditions: 250 g ai/ha; Flood; scale of 0 to 100 where 0 is no effect and 100 is complete control; 13 to 15 days
Method in brief: (§2)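 Compound was added to standing water 3 cm above soil, flood maintained, and plants held in a greenhouse before visual scoring against controls at 13 to 15 days.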

[17] = test system: ducksalad (Heteranthera limosa); assay: Test B flooded paddy test, plant response rating; conditions: 250 g ai/ha; Flood; scale of 0 to 100 where 0 is no effect and 100 is complete control; 13 to 15 days
Method in brief: as §2

rice (Oryza sativa) = assay: Test B flooded paddy test, plant response rating; conditions: 250 g ai/ha; Flood; scale of 0 to 100 where 0 is no effect and 100 is complete control; 13 to 15 days
Method in brief: as §2

[18] = test system: sedge, umbrella (small-flower umbrella sedge, Cyperus difformis); assay: Test B flooded paddy test, plant response rating; conditions: 250 g ai/ha; Flood; scale of 0 to 100 where 0 is no effect and 100 is complete control; 13 to 15 days
Method in brief: as §2

[19] = 31 g ai/ha, 0 to 100 scale, 0 no effect, 100 complete control
[20] = 125 g ai/ha, 0 to 100 scale (0 no effect, 100 complete control)
[21] = 500 g ai/ha, 0 to 100 scale (0 no effect, 100 complete control)

CCCC(C#N)c1c(Br)cccc1Oc1ncc(Cl)cn1 (stereo not drawn) [Compound 118]
Plant response rating, Ryegrass, Italian [1, 19]: 0 | Plant response rating, Ryegrass, Italian [1, 20]: 0 | Plant response rating, Barnyardgrass [2, 19]: 0 | Plant response rating, Barnyardgrass [2, 20]: 0 | Plant response rating, Foxtail, Giant [3, 19]: 0 | Plant response rating, Foxtail, Giant [3, 20]: 20 | Plant response rating, Kochia (kochia (Kochia scoparia) [4]; [19]): 0 | Plant response rating, Kochia (kochia (Kochia scoparia) [4]; [20]): 0 | Plant response rating, Pigweed [5, 19]: 20 | Plant response rating, Pigweed [5, 20]: 50 | Plant response rating, Ragweed [6, 19]: 100 | Plant response rating, Ragweed [6, 20]: 50 | Ryegrass, Italian plant response rating ([7]; 31 g ai/ha): 0 | Ryegrass, Italian plant response rating ([7]; 125 g ai/ha): 0 | Barnyardgrass plant response rating ([8]; 31 g ai/ha): 0 | Barnyardgrass plant response rating ([8]; 125 g ai/ha): 10 | Blackgrass plant response rating ([9]; 31 g ai/ha): 0 | Blackgrass plant response rating ([9]; 125 g ai/ha): 0 | Corn plant response rating (corn (Zea mays); 31 g ai/ha): 0 | Corn plant response rating (corn (Zea mays); 125 g ai/ha): 10 | Galium plant response rating ([10]; 31 g ai/ha): 10 | Galium plant response rating ([10]; 125 g ai/ha): 30 | Foxtail, Giant plant response rating ([11]; 31 g ai/ha): 0 | Foxtail, Giant plant response rating ([11]; 125 g ai/ha): 10 | Kochia plant response rating (kochia (Kochia scoparia) [12]; 31 g ai/ha): 30 | Kochia plant response rating (kochia (Kochia scoparia) [12]; 125 g ai/ha): 60 | Pigweed plant response rating ([13]; 31 g ai/ha): 40 | Pigweed plant response rating ([13]; 125 g ai/ha): 60 | Ragweed plant response rating ([14]; 31 g ai/ha): 0 | Ragweed plant response rating ([14]; 125 g ai/ha): 10 | Wheat plant response rating ([15]; 31 g ai/ha): 0 | Wheat plant response rating ([15]; 125 g ai/ha): 0 | Plant response rating, Barnyardgrass [16]: 0 | Plant response rating, Ducksalad [17]: 0 | Plant response rating, Rice (rice (Oryza sativa)): 0 | Plant response rating, Sedge, Umbrella [18]: 50

CC(=NOC(C)C)c1c(Cl)cccc1Oc1ncc(Cl)cn1 [Compound 104]
Plant response rating, Ryegrass, Italian [1, 19]: 0 | Plant response rating, Ryegrass, Italian [1, 20]: 0 | Plant response rating, Barnyardgrass [2, 19]: 0 | Barnyardgrass plant response rating [2, 20]: 30 | Plant response rating, Foxtail, Giant [3, 19]: 0 | Plant response rating, Foxtail, Giant [3, 20]: 40 | Plant response rating, Kochia (kochia (Kochia scoparia) [4]; [19]): 0 | Plant response rating, Kochia (kochia (Kochia scoparia) [4]; [20]): 0 | Plant response rating, Pigweed [5, 19]: 0 | Plant response rating, Pigweed [5, 20]: 40 | Plant response rating, Ragweed [6, 19]: 0 | Plant response rating, Ragweed [6, 20]: 0 | Ryegrass, Italian plant response rating ([7]; 31 g ai/ha): 0 | Ryegrass, Italian plant response rating ([7]; 125 g ai/ha): 0 | Barnyardgrass plant response rating ([8]; 31 g ai/ha): 0 | Barnyardgrass plant response rating ([8]; 125 g ai/ha): 0 | Blackgrass plant response rating ([9]; 31 g ai/ha): 0 | Blackgrass plant response rating ([9]; 125 g ai/ha): 20 | Corn plant response rating (corn (Zea mays); 31 g ai/ha): 0 | Corn plant response rating (corn (Zea mays); 125 g ai/ha): 10 | Galium plant response rating ([10]; 31 g ai/ha): 10 | Galium plant response rating ([10]; 125 g ai/ha): 30 | Foxtail, Giant plant response rating ([11]; 31 g ai/ha): 0 | Foxtail, Giant plant response rating ([11]; 125 g ai/ha): 10 | Kochia plant response rating (kochia (Kochia scoparia) [12]; 31 g ai/ha): 0 | Kochia plant response rating (kochia (Kochia scoparia) [12]; 125 g ai/ha): 10 | Pigweed plant response rating ([13]; 31 g ai/ha): 10 | Pigweed plant response rating ([13]; 125 g ai/ha): 40 | Ragweed plant response rating ([14]; 31 g ai/ha): 0 | Ragweed plant response rating ([14]; 125 g ai/ha): 0 | Wheat plant response rating ([15]; 31 g ai/ha): 0 | Wheat plant response rating ([15]; 125 g ai/ha): 0 | Plant response rating, Barnyardgrass [16]: 0 | Plant response rating, Ducksalad [17]: 75 | Plant response rating, Rice (rice (Oryza sativa)): 0 | Plant response rating, Sedge, Umbrella [18]: 75

CCCCC(=O)c1c(C#N)cccc1Oc1ncc(Cl)cn1 [Compound 68]
Plant response rating, Ryegrass, Italian [1, 19]: 0 | Ryegrass, Italian plant response rating [1, 20]: 0 | Plant response rating, Barnyardgrass [2, 19]: 10 | Barnyardgrass plant response rating [2, 20]: 70 | Plant response rating, Foxtail, Giant [3, 19]: 10 | Foxtail, Giant plant response rating [3, 20]: 80 | Plant response rating, Kochia (kochia (Kochia scoparia) [4]; [19]): 0 | Kochia plant response rating (kochia (Kochia scoparia) [4]; [20]): 30 | Plant response rating, Pigweed [5, 19]: 20 | Pigweed plant response rating [5, 20]: 80 | Plant response rating, Ragweed [6, 19]: 0 | Ragweed plant response rating [6, 20]: 0 | Ryegrass, Italian plant response rating ([7]; 31 g ai/ha): 0 | Ryegrass, Italian plant response rating (0 to 100 scale) ([7]; 125 g ai/ha): 0 | Barnyardgrass plant response rating ([8]; 31 g ai/ha): 10 | Barnyardgrass plant response rating (0 to 100 scale) ([8]; 125 g ai/ha): 30 | Blackgrass plant response rating ([9]; 31 g ai/ha): 10 | Blackgrass plant response rating (0 to 100 scale) ([9]; 125 g ai/ha): 30 | Corn plant response rating (corn (Zea mays); 31 g ai/ha): 10 | Corn plant response rating (0 to 100 scale) (corn (Zea mays); 125 g ai/ha): 20 | Galium plant response rating ([10]; 31 g ai/ha): 20 | Galium plant response rating (0 to 100 scale) ([10]; 125 g ai/ha): 60 | Foxtail, Giant plant response rating ([11]; 31 g ai/ha): 20 | Foxtail, Giant plant response rating (0 to 100 scale) ([11]; 125 g ai/ha): 30 | Kochia plant response rating (kochia (Kochia scoparia) [12]; 31 g ai/ha): 20 | Kochia plant response rating (0 to 100 scale) (kochia (Kochia scoparia) [12]; 125 g ai/ha): 40 | Pigweed plant response rating ([13]; 31 g ai/ha): 20 | Pigweed plant response rating (0 to 100 scale) ([13]; 125 g ai/ha): 90 | Ragweed plant response rating ([14]; 31 g ai/ha): 0 | Ragweed plant response rating (0 to 100 scale) ([14]; 125 g ai/ha): 20 | Wheat plant response rating ([15]; 31 g ai/ha): 0 | Wheat plant response rating (0 to 100 scale) ([15]; 125 g ai/ha): 0 | Plant response rating, Barnyardgrass [16]: 0 | Plant response rating, Ducksalad [17]: 0 | Plant response rating, Rice (rice (Oryza sativa)): 0 | Plant response rating, Sedge, Umbrella [18]: 0

O=Cc1c(Cl)cccc1Oc1ncc(Cl)cn1 [Compound 139]
Plant response rating, Ryegrass, Italian [1, 20]: 0 | Ryegrass, Italian plant response rating [1, 21]: 0 | Plant response rating, Barnyardgrass [2, 20]: 0 | Barnyardgrass plant response rating [2, 21]: 0 | Plant response rating, Foxtail, Giant [3, 20]: 0 | Foxtail, Giant plant response rating [3, 21]: 0 | Plant response rating, Kochia (kochia (Kochia scoparia) [4]; [20]): 0 | Kochia plant response rating (kochia (Kochia scoparia) [4]; [21]): 0 | Plant response rating, Pigweed [5, 20]: 0 | Pigweed plant response rating [5, 21]: 0 | Plant response rating, Ragweed [6, 20]: 50 | Ragweed plant response rating [6, 21]: 0 | Ryegrass, Italian plant response rating ([7]; 125 g ai/ha): 0 | Ryegrass, Italian plant response rating (0 to 100 scale) ([7]; 500 g ai/ha): 20 | Barnyardgrass plant response rating ([8]; 125 g ai/ha): 0 | Barnyardgrass plant response rating (0 to 100 scale) ([8]; 500 g ai/ha): 0 | Blackgrass plant response rating ([9]; 125 g ai/ha): 0 | Blackgrass plant response rating (0 to 100 scale) ([9]; 500 g ai/ha): 0 | Corn plant response rating (corn (Zea mays); 125 g ai/ha): 0 | Corn plant response rating (0 to 100 scale) (corn (Zea mays); 500 g ai/ha): 0 | Galium plant response rating ([10]; 125 g ai/ha): 0 | Galium plant response rating (0 to 100 scale) ([10]; 500 g ai/ha): 0 | Foxtail, Giant plant response rating ([11]; 125 g ai/ha): 0 | Foxtail, Giant plant response rating (0 to 100 scale) ([11]; 500 g ai/ha): 0 | Kochia plant response rating (kochia (Kochia scoparia) [12]; 125 g ai/ha): 0 | Kochia plant response rating (0 to 100 scale) (kochia (Kochia scoparia) [12]; 500 g ai/ha): 0 | Pigweed plant response rating ([13]; 125 g ai/ha): 0 | Pigweed plant response rating (0 to 100 scale) ([13]; 500 g ai/ha): 0 | Ragweed plant response rating ([14]; 125 g ai/ha): 0 | Ragweed plant response rating (0 to 100 scale) ([14]; 500 g ai/ha): 0 | Wheat plant response rating ([15]; 125 g ai/ha): 0 | Wheat plant response rating (0 to 100 scale) ([15]; 500 g ai/ha): 0 | Plant response rating, Barnyardgrass [16]: 0 | Plant response rating, Ducksalad [17]: 30 | Plant response rating, Rice (rice (Oryza sativa)): 0 | Plant response rating, Sedge, Umbrella [18]: 0
